Experimental data as given in BindingDB's records for doi:10.1021/acs.jmedchem.0c00964 (Philipps-University, 2020).
pKi: −log10 of the molar value.

Target: T1, Orexin/Hypocretin receptor type 1 (Homo sapiens, UniProt O43613)
T1 sequence (O43613 whole entry): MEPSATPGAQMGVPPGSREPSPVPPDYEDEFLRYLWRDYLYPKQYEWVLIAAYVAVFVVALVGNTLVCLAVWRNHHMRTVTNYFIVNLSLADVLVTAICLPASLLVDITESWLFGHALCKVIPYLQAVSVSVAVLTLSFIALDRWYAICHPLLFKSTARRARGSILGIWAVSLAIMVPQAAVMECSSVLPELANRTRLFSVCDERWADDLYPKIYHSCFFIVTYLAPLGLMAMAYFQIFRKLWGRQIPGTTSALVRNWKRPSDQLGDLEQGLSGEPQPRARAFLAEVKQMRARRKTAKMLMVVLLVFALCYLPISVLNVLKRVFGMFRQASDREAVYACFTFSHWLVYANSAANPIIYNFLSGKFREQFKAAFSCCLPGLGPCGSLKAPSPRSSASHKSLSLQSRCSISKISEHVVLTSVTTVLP
Assay: Displacement of [3H]-[…] from human orexin 1 receptor expressed in CHO cells incubated for 2 hrs by whole cell radioligand binding assay

Question: How did the pKi turn out when O=C(/C=C/c1cccc(F)c1)N1CCOc2c(cc(-c3cccnc3)cc2OC[C@H]2CCCCO2)C1 was run?
Answer: 4.67

Question: O=C1NC(=O)C(=Cc2c(OCc3ccccc3F)ccc3ccccc23)C(=O)N1 was tested. Which pKi did it give?
Answer: 4.48

Question: O=C1CCCN1c1cccc(C(=O)N(Cc2ccc(F)cc2)C2CC2)c1 was tested. Which pKi did it give?
Answer: 4.49

Question: With O=C(c1sc2cccc(F)c2c1Cl)N1CCN(Cc2ccco2)CC1 as the compound, how does the pKi read?
Answer: 4.36

Question: COc1ccc(C(=O)Oc2cc(=O)n(-c3ccccc3)c3c2CCCC3)cc1 was tested. Which pKi did it give?
Answer: 4.61
